We go through six compounds from patent US5695761A, “Suppression of nitric oxide production by osteopontin” (Rutgers University, priority 1993, dated 1997).

Assay [1] has as its system mouse primary kidney PTE cells. Description: Nitrite production over 3 days in PTE cells treated with angiotensin II. It is filed as cell-based. The following applies: for nitrite production: agent alone, 3 days incubation; for effect on A II-induced nitrite production: 3 days incubation with A II. The procedure:
FIG. 7. Angiotensin II enhances nitrite production by a process that can be reversed by OPN in PTE cells. Primary mouse kidney proximal tubule epithelial cells were grown as described in the Examples, infra. Cell were cultured and the medium collected after three days of growth in medium with the indicated supplements.
Preparation of Cells. CD-1 mice aged 4-6 weeks were obtained from Laboratory Animal Services of Nelson Biological Laboratory, Rutgers University, New Jersey. Primary mouse kidney proximal tubule epithelial (PTE) cells were prepared as previously described in Example 1. For NO measurement, cells were subcultured into 24-well tissue culture plates (Linbro, Hamden, Conn.) at 5×10^4 cells per well and incubated overnight for cell attachment. After removal of the medium, the cells were washed twice with Dulbecco's phosphate buffered saline (0.2 g/l KCl, 0.2 g/l KH2 PO4, 8 g/l NaCl, 1.15 g/l Na2 HPO4) and re-fed phenol red-free RPMI 1640 medium (Gibco) containing 10 μg/ml tetrahydrobiopterin (ICN Biochemicals, Cleveland Ohio).
Measurement of NO Production. Synthesis of NO in the medium over a 3-day period was determined by the accumulation of nitrite, a stable oxidized product of NO (Marletta, 1988, Chem. Res. Toxicol. 1:249-257). Nitrite was measured with the Griess reagents using sodium nitrite as standard, as described in Example 1.

Assay [2] relates to constitutive nitric oxide synthase (cNOS) mRNA. The experiment in a line: Northern blot analysis of cNOS mRNA in PTE cells. It is filed as cell-based, mouse. The following applies: 12 h. The method, then: FIGS. 8A and 8B. Norther blot analysis of constitutive nitric oxide synthase (cNOS) mRNA expression. (A) Autoradiogram of RNA separated by agarose-formaldehyde gel electrophoresis, transfered to nylon membranes, and probed with ^32 P-labelled oligonucleotide probes as described in Example 2, infra. (B) Reltive intensities of cNOS to 18S rRNA quantified by densitometry. Cells were treated with buffer, angiotensin (1 μM), angiotensin with osteopontin (0.1 and 0.001 nM), or ionomycin, as indicated in B. The blots in (A) correspond to the bars in (B).
Northern Blot Analysis. Total RNA was isolated using TRI reagent (Molecular Research Center, Cincinnati, Ohio) after 12 h stimulation in the medium (see Example 1). Rat brain constitutive nitric oxide synthase (cNOS) cDNA was obtained as described (Bredt et al., 1991, Nature 351:714-718). Five μg of total RNA was separated on an agarose-formaldehyde gel, transferred onto a nylon membrane (GeneScreen Plus, NEN Research Products, Du Pont, Boston, Mass.) and hybridized with a ^32 P-labeled cNOS cDNA probe. The blot was washed 3 times with 0.5×SSC, 0.1% SDS at 65° C. and autoradiographed for 1 to 3 days. The membrane was stripped and successively hybridized to a mouse 18S rRNA probe. The relative intensities of cNOS to 18S rRNA in the resulting autoradiograms were quantified by densitometry (Pharmacia LKB, UltraScan XL).

Assay [3] relates to primary mouse PTE cells. Description: Intracellular calcium mobilization (Indo-1 AM) in PTE cells. The format is cell-based. The procedure:
FIGS. 9A-D. Induction of calcium mobilization by ionomycin, angiotensin II and osteopontin in PTE cells. Cells were incubated with 1 μM Indo-1 AM [1-(2-amino-5-(6-carboxyindol-2-yl)phenoxy)-2-(2'-amino-5'-methylphenoxy)ethane-N,N,N',N'-tetraacetic acid) and analyzed on a Meridian 570 Anchored Cell Analysis System (ACAS) equipped with an Innova 90 5-W laser adjusted to an output of 100 mW. Calcium mobilization was quantified by scanning single 150×150 μm fields containing about 10 cells every 30 s for a total of 10 min and quantifying the emission at 500 nm (calcium-free Indo-1) and 400 nm (calcium-bound Indo-1). After 1 min, the cells were stimulated with (A) control, (B) 10 μM ionomycin, (C) […] angiotensin II, and (D) 2 nM or 0.1 nM OPN.
Measurement of intracellular calcium mobilization. Primary mouse PTE cells were subcultured onto collagen-coated Nunc coverglass chambers (Nunc, Inc., Naperville, Ill.). Intracellular calcium mobilization was monitored using a fluorescent, calcium-sensitive indicator Indo-1-acetoxymethyl ester (Indo-1 AM) (Molecular Probes, Eugene, Oreg.) and qualified on a Meridian 570 Anchored Cell Analysis (ACAS) equipped with an Innova 90-5W laser adjusted to an output of 100 mW. Cells were washed with HBSS containing 0.3% bovine serum albumin (BSA) and incubated with 1 μM Indo-1 AM at 37° C. for 30 min. Then, the cells were washed 3 times and 1 ml of HBSS containing 0.3% BSA was added. The calcium ratio was determined by scanning single 150×150 μm field containing about 10 cells every 30 sec for a total of 10 min and recording the emission at 500 nm (calcium-free Indo-1) and 400 nm (calcium-saturated Indo-1). Intracellular calcium concentrations were determined by generating a standard curve using a known calcium solution (Gardner et al., 1993, J. Leukocyte Biol. 53:190-196). All data were analyzed with Meridian ACAS statistical software.
A general note: Calcium assays in cells follow changes in intracellular calcium, usually with a dye or a luminescent sensor.

The subject of assay [4] is rabbit kidney PTE cells. The following applies: primary cultures of rabbit kidney PTE cells; Norman et al. 1987; cited from earlier work.
In assay [5] the test system is osteoclasts. The following applies: Zimolo et al. 1993; cited from earlier work.
The test system of assay [6] is primary mouse kidney proximal tubule epithelial cells. The experiment in a line: Nitrite accumulation (Griess reagent) in PTE cells stimulated with LPS and γ-IFN. It is filed as cell-based. The following applies: for effect on LPS and γ-IFN-induced nitrite (NO) production: agent alone on stimulated cells, nitrite at 24 h; for nitrite production relative to the LPS and γ-IFN-stimulated cells: measured at 24 h. The procedure:
Cell culture. […] Clin. Invest. 91:2138-43). Briefly, slices of cortex from decapsulated kidneys were washed in unsupplemented RPMI 1640 and cut int 1-2 mm^3 pieces, which were then incubated for 20 min. at 37° C. in Krebs-Henseleit buffer (Sigma Chemical Co., St. Louis, Mo.) supplemented with 10 mM HEPES (pH 7.5), 1 g/l D-glucose, 200 mg/1 sodium pyruvate, 0.125 mg/ml collagenase (Type 1A, Sigma), and 0.6 U/ml dispase (Boehringer Mannheim Biochemica, Indianapolis, Ind.). The digested cortex was centrifuged at 70×g for 3 min and the cells resuspended in RPMI 1640 supplemented with 10 mM HEPES (pH 7.5), 5 μg/ml human transferrin, 50 nM dexamethasone, 5 μg/ml insulin (Gibco, Gaithersberg, Md.), 3% fetal bovine serum, 100 U/ml penicillin and 100 μg/ml streptomycin. For NO measurements, cells were subcultured into 24-well culture plates (Linbro, Hamden, Conn.) at 5×10^4 cells/16-mm well and incubated overnight. After removal of the medium, the cells were washed 3 times with Dulbecco's phosphate buffered saline (Sigma D5652), and re-fed with phenol red-free RPMI 1640 medium containing 2 mM […] and 10 μg/ml tetrahydrobiopterin (ICN Biochemicals, Cleveland, Ohio) in the presence or absence of 100 ng/ml lipopolysaccharide (LPS) (Sigma) and 100 U/ml recombinant mouse γ-interferon (γ-IFN). Measurement of NO (as NO2^-) production. Nitric oxide is a short-lived reactive nitrogen intermediate that in aqueous solution in the absence of oxyhemoproteins or superoxide, is oxidized primarily to nitrite (Ignarro et al., 1993, Proc. Natl. Acad. Sci. U.S.A. 90:8103-07). Under such conditions NO production can be assessed by the accumulation of nitrite in the medium. […] Biochem. 126:131-138).
In general terms: Nitrite, measured by Griess reagent, commonly stands in for NO production.

Assay [7] relates to inducible nitric oxide synthase (iNOS) mRNA. The experiment in a line: Northern blot analysis of iNOS mRNA in stimulated PTE cells. It is filed as cell-based, mouse. The note with it: measured at 8 h, subconfluent PTE cells. The procedure: FIGS. 3A and 3B. Inhibition of inducible NO-synthase (iNOS) gene induction by OPN. A) Northern blot analysis of iNOS mRNA and 18s rRNA levels in primary mouse kidney epithelial cells 8 h after treatment. B) Accumulation of nitrite in the medium 24 h after treatment. Values are the mean±standard error from three separate plates. Lane 1: control; lanes 2, 4 and 5: stimulated with 100 ng/ml LPS plus 100 U/ml γIFN; lanes 3 and 4: treated with 1 pM OPN; lanes 5 and 6: treated with 100 pM OPN.
Northern blot analysis. Total RNA was isolated using the TRI reagent (Molecular Research Center, Cincinnati, Ohio). The RNA (5 μg) was fractionated on formaldehyde-agarose gels, blotted and probed using standard procedures (Sambrook et al., 1989, supra). The mouse cDNA corresponding to the macrophage inducible nitric oxide synthase gene (iNOS) has been described (Lyons, 1992, J. Biol. Chem. 267:6370-74).

In assay [8] the test system is iNOS protein. The experiment in a line: Immunofluorescence analysis of iNOS protein in PTE cells. It is filed as cell-based, mouse. The note with it: 100 pM OPN, LPS 100 ng/ml and γIFN 100 U/ml, 48 h. The procedure:
FIGS. 4A-D. OPN-induced suppression of iNOS protein in PTE cells. Cells were fixed and permeabilized by incubation of 30 min with 0.4 mM lysophosphatidylcholine in 1% buffered formalin. After washing three times with phosphate-buffered saline, cells were blocked with 0.1% bovine serum albumin in phosphate-buffered saline and then incubated for 4 h first with a 1:10,000 dilution of rabbit peptide antibody to the C-terminal 10 amino acids of iNOS. After washing, the cells were incubated with FITC-conjugated goat-anti rabbit secondary antibody (Cappel, West Chester, Pa.). After an additional 30 min, the cells were washed and analyzed for fluorescence intensity using a Meridian ACAS anchored cell analysis system. A) Upper left, untreated control cells; B) upper right, cells treated for 48 h with LPS (100 ng/ml) and γIFN (100 U/ml); C) lower left, cells treated for 48 h with OPN (100 pM); D) lower right, cells treated for 48 h with LPS, γIFN and OPN. The color bar represents relative fluorescence intensity on the four-decade log scale with white being the most intense.

Where two headings read alike, the source gives them in different places.

For “A II: angiotensin (the x-mer peptide produced from angiotensinogen), obtained from Sigma (DRVYIHPF; Angiotensin-2; UniProt P01019 25-32, looked up)”, the nitrite production result in assay [1] was “dose-dependent increase in nitrite accumulation”. Further, in assay [2] (angiotensin 1 μM, densitometry relative to rRNA), the “enhancement of cNOS mRNA” value is 3.5 fold. Besides, the calcium mobilization entry in assay [3] was “a fast and transient rise in cytosolic free calcium levels”; in assay [3] (1 μM, within 10 min), “only a delayed and small transient response in calcium mobilization”. Further, the concentration necessary to induce a transient rise in cytosolic free calcium in assay [4] was 5 µM.

`C[C@H](CCC(=O)O)C[C@H](C)C[C@H](C)C(=O)/C=C(\O)[C@H](C)C[C@H](C)C/C=C/[C@@H](C)[C@@H](O)[C@@H](C)[C@@H](O)C[C@@H]1CC[C@@](C)([C@H]2CC[C@@](C)([C@@H](C)O)O2)O1` [Ionomycin]: the nitrite production result in assay [1] is given as “increased nitrite production”. Moreover, the “cNOS mRNA abundance” value in assay [2] (agent alone) was “greatly increase”. The calcium mobilization entry in assay [3] (10 μM ionomycin) was “an increase in cytosolic free calcium”.

Regarding “OPN (purified from urine): OPN purified from urine, used by Zimolo et al. (cited)”, the “concentration raising intracellular free Ca++ level” value in assay [5] is recorded as 1 pM.

Regarding `CNC(=N)NCCC[C@H](N)C(=O)O` [L-NMA, N^G -methyl-L-arginine, reference compound], the “effect on LPS and γ-IFN-induced nitrite (NO) production” value in assay [6] is “Inhibition of nitrite accumulation”. The “effect on A II-induced nitrite production” value in assay [1] is given as “inhibited the nitrite production induced by A II”.

As to “OPN: Recombinant human osteopontin, secreted 44 kDa RGD-containing phosphoprotein, purified from transfected MH2 human embryonic kidney cells”, the “nitrite production relative to the LPS and γ-IFN-stimulated cells” value in assay [6] (1 pM OPN added simultaneously with inducers) was found to be 45%; in assay [6] (100 pM OPN added simultaneously with inducers) it was 24%. The “time-dependence of inhibition of NO production” value in assay [6] (OPN 100 pM added 60 min prior to γ-IFN and LPS, nitrite after 24 h) is “more inhibitory than when added simultaneously”. Further, the “effective concentration for suppression of NO production” value was “required higher concentrations” in assay [6] (confluent cells) and ~ 10 pM in assay [6] (subconfluent PTE cells). Besides, the “level of the 4 kb mRNA species (iNOS mRNA), normalized to 18 S rRNA” value is 54% in assay [7] (1 pM OPN added simultaneously with LPS and γ-IFN); 31% in assay [7] (100 pM OPN added simultaneously with LPS and γ-IFN). The “iNOS protein concentration in stimulated cells” value in assay [8] is listed as “diminished concentration of iNOS protein”. Moreover, in assay [1], the “effect on A II-induced nitrite production” value is “almost completely blocked”. Further, the “effect on amount of A II-induced cNOS mRNA” value in assay [2] (OPN 0.1 nM or 1 pM with A II) is listed as “only a modest effect”. Also, in assay [3] (2 nM compared with 0.1 nM OPN), the “concentration dependence of calcium reduction” value was “the smaller concentration of OPN was more potent in reducing calcium levels”. Further, in assay [3] (2 nM or 0.1 nM OPN), the calcium mobilization result was “a reduction in the cytosolic free calcium”.

For Ac-PTVDVPDGRGDSLAYGLRSK-NH2 [OPP], in assay [6], the “effect on LPS and γ-IFN-induced nitrite (NO) production” value is “effective at reducing LPS and γ-IFN-induced NO production”.
